Activity calls are given as the source filed them.
Columns and labels:
[1] = A High Throughput Confirmatory Assay used to Identify Novel Compounds that Inhibit Mycobacterium Tuberculosis in the absence of Glycerol.; assay type: functional
[2] = cells; assay type: functional
[3] = target: T1, Estrogen receptor (Homo sapiens, UniProt P03372);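 further: potency for inhibiting coactivator peptide recruitment to the receptor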
T1 sequence (P03372 whole entry): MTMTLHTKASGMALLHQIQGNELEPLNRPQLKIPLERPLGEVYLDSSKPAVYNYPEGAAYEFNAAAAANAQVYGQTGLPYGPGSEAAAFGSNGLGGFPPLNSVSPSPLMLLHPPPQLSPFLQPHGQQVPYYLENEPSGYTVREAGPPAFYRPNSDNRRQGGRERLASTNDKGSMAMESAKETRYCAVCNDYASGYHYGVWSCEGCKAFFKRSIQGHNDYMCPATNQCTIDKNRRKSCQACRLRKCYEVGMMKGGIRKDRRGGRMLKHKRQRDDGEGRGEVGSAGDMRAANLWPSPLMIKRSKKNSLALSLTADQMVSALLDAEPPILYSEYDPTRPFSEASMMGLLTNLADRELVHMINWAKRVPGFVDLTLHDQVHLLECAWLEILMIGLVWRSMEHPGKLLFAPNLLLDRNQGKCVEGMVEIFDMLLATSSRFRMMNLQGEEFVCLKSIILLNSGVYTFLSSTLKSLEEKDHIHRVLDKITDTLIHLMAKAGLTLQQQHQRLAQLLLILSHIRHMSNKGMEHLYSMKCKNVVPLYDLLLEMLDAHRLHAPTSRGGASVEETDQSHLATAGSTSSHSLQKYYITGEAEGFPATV

[4] = inhibitors of firefly luciferase expression or activity, dose response, H4 neuroglioma cells, luminescence (AID 1990); assay type: functional, cell-based
[5] = luciferase reporter signal reduction – luminescence, H4-C neuroglioblastoma cells, dose response (AID 2458); assay type: functional, cell-based;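 further: H4 neuroglioblastoma cells stably carrying a luciferase reporter gene fusion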
[6] = tested on: HEK293; experiment: NOD1 signaling inhibitors, primary screen, cell-based, luminescence, uHTS (AID 1578); assay type: functional; settings: Homo sapiens
[7] = tested on: Streptococcus sp. 'group A'; experiment: growth inhibition of control SK(-) GAS strain, dose response, counter-screen for streptokinase expression inhibitor project, luminescence, kanamycin, BacTiterGlo, confirmation (AID 1900); assay type: functional, organism-based
[8] = tested on: HEK293; experiment: cells; assay type: functional, cell-based; settings: Homo sapiens
[9] = cells; assay type: functional, cell-based
[10] = inhibitors of SNCA 5'UTR-driven reporter translation, confirmation, H4 neuroglioma cells, luminescence (AID 1988); assay type: functional, cell-based
[11] = tested on: HEK293; experiment: cells; assay type: functional, cell-based; settings: Homo sapiens; remark: listed apart in the source
[12] = target: Nucleotide-binding oligomerization domain-containing protein 2 (Homo sapiens, UniProt Q9HC29); experiment: NOD2 signaling inhibitors, cell-based, luminescence, uHTS, HEK293 (AID 1566); assay type: functional
Chain of Nucleotide-binding oligomerization domain-containing protein 2 (Q9HC29 whole entry, the tested form may be a part): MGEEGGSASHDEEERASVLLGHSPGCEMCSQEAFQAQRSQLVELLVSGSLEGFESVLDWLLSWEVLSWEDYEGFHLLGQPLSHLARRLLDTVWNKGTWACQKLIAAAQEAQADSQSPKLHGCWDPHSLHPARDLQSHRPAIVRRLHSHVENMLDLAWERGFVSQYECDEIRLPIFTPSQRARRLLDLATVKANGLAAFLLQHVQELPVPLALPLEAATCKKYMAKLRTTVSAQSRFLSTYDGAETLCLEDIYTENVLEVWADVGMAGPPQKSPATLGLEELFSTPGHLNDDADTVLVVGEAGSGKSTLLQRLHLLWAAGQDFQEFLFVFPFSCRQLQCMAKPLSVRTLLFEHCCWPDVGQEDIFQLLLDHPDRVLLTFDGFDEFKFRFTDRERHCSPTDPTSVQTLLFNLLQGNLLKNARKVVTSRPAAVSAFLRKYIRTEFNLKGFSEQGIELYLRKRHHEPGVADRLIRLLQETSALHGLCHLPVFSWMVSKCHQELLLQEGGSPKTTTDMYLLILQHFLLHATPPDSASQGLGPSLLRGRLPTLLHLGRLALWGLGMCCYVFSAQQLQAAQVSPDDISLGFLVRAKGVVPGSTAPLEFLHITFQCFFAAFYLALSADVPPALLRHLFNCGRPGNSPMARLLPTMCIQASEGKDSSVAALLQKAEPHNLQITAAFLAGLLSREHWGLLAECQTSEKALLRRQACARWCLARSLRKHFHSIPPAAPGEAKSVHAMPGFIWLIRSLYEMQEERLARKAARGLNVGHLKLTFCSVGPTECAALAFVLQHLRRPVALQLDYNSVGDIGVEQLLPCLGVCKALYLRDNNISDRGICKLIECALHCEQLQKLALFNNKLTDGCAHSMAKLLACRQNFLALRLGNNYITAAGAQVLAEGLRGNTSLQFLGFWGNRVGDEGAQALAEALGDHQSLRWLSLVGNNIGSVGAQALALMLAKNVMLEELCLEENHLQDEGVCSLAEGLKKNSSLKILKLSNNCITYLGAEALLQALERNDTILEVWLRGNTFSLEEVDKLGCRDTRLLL

[13] = target: T2, Mannose-6-phosphate isomerase (Homo sapiens, UniProt P34949); experiment: inhibitors of human PMI, primary screen, biochemical, fluorescence intensity, coupled assay (AID 1209)
T2 sequence (P34949 whole entry): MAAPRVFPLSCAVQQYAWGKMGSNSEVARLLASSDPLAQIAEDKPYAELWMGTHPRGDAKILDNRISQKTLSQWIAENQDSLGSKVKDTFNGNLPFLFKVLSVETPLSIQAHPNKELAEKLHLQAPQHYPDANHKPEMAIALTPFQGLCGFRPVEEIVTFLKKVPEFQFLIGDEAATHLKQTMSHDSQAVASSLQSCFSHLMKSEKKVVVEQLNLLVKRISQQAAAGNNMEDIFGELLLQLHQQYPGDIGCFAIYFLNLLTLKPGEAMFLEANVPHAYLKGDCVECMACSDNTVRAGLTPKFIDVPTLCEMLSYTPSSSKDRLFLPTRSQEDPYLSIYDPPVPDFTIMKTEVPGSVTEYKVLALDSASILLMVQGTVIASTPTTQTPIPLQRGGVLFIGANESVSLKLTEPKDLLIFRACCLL

[14] = tested on: HEK293; experiment: NOD2 signaling inhibitors in MDP-stimulated cells, cell-based, uHTS, luminescence (AID 2001); assay type: functional; settings: Homo sapiens
[15] = inhibitors of intracellular T. cruzi replication, confirmation, NIH3T3 host cells, beta-gal luminescence (AID 2044); assay type: functional, cell-based;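 further: intracellular parasites grown in NIH/3T3 mouse fibroblasts as host cells; luminescent beta-galactosidase reporter signal from transgenic T. cruzi replicating inside host cells; inhibitors lower the luminescence signal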
[16] = tested on: HEK293; experiment: cells; assay type: functional, cell-based; settings: Homo sapiens; remark: listed apart in the source
[17] = cytotoxicity toward NIH3T3 fibroblasts, dose response, counter-screen, cell-based, ATP luminescence, mouse fibroblasts (AID 2010); assay type: functional;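 further: cells exposed to compound for about 90 hours before reading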
[18] = tested on: Streptococcus; experiment: Group A Streptococcus viability loss, dose response, counter-screen for streptokinase expression inhibitor project, luminescence, BacTiterGlo (AID 1915); assay type: functional, organism-based;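 further: potency for reduction of bacterial viability or growth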
[19] = target: T2, Mannose-6-phosphate isomerase; experiment: human PMI inhibitors, high substrate, primary screen, biochemical, fluorescence intensity, high mannose 6-phosphate (AID 1220)
[20] = inhibitors of SNCA 5'UTR-driven translation, confirmation, luminescence, H4 neuroglioblastoma cells, dose confirmation (AID 2454); assay type: functional, cell-based;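 further: H4 neuroglioblastoma cells carrying an alpha-synuclein 5'UTR luciferase reporter; potency for inhibition of the luciferase signal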
[21] = tested on: INS1; experiment: beta cell apoptosis inhibitors, cytokine rescue, dose response, luminescence, retest (AID 449756); assay type: functional, cell-based; settings: Rattus norvegicus;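 further: cell death triggered by IL-1 beta plus TNF-alpha plus IFN-gamma mixture; protective hits raise ATP signal compared with cytokine alone wells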
[22] = target: G2/mitotic-specific cyclin-B1 (Homo sapiens, UniProt P14635); experiment: Counterscreen assay for inhibitors of Wee1 degradation: dose response cell-based assay to identify inhibitors of cyclin B degradation. [Related pubchem assays: 1410, 1321 ]; assay type: functional
Chain of G2/mitotic-specific cyclin-B1 (P14635 whole entry): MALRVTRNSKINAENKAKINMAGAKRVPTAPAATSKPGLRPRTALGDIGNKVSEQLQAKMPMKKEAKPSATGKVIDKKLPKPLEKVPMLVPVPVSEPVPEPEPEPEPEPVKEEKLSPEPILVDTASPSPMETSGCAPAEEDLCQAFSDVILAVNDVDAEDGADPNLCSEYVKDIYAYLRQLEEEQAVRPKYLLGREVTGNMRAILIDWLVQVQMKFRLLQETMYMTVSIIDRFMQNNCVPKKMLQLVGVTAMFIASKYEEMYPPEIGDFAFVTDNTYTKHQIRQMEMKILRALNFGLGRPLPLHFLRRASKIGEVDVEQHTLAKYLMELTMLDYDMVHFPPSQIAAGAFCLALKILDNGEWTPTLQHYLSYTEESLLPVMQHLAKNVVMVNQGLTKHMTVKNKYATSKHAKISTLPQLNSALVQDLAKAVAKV

[23] = target: Wee1-like protein kinase (Homo sapiens, UniProt P30291); experiment: Dose Response Cell-based Assay for Inhibitors of Wee1 Degradation. [Related pubchem assays: 1410, 1321 ]; assay type: functional
Chain of Wee1-like protein kinase (P30291 whole entry): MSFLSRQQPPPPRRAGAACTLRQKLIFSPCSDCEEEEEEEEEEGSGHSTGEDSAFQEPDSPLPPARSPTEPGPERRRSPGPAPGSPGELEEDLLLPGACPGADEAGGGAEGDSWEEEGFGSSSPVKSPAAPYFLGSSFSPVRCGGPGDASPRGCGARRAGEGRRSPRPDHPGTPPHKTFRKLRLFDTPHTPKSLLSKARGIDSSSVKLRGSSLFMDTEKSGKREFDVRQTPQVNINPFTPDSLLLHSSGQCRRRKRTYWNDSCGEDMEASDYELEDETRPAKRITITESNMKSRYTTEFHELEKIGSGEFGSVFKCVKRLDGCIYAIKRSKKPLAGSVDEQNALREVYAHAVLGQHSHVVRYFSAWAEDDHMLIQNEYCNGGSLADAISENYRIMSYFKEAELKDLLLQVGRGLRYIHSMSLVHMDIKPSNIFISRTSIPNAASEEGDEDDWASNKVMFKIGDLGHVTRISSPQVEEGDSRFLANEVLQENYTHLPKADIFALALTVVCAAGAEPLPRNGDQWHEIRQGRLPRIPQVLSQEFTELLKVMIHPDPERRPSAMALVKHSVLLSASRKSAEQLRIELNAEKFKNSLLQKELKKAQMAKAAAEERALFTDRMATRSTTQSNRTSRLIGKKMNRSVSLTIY

[24] = target: NADPH oxidase 1 (Homo sapiens, UniProt Q9Y5S8); assay type: functional, cell-based;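 further: Cell-based assay with luminescence read-out, IC50 derived from inhibitor dose-response curves; intracellular ROS from endogenous NOX1 in intact HT29 colon cancer cells; potency of inhibitors that lower the ROS luminescence signal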
Chain of NADPH oxidase 1 (Q9Y5S8 whole entry): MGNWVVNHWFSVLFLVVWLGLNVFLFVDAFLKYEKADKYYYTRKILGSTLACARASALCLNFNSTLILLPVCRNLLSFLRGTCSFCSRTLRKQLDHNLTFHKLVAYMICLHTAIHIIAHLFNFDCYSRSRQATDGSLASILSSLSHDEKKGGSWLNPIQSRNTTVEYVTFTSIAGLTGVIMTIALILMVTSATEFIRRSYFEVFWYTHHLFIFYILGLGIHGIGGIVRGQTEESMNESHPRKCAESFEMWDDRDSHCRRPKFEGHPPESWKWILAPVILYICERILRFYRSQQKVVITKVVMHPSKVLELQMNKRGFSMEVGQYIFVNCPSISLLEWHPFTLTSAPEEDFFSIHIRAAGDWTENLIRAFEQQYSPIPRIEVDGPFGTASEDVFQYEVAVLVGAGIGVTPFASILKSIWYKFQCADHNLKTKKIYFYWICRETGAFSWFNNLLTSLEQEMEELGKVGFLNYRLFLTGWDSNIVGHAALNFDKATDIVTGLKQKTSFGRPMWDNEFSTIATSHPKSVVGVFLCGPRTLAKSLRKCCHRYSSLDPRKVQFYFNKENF

O=c1oc(-c2cccs2)nc2c1cnn2-c1ccccc1
IC50 [1]: > 100 µM (active)
IC50 [2]: 4.92 µM (active)

CCCc1cc(-n2ccnc2)n2c(nc3ccccc32)c1C#N
IC50 [3]: 29.8 µM (active)

Oc1c(CN2CCN(c3ccccn3)CC2)cc(Cl)c2cccnc12
EC50 [4]: 2.52 µM (active)
EC50 [5]: 10.7 µM (active)
EC50 [6]: 4.58 µM (active)
EC50 [7]: 3.06 µM (active)
IC50 [8]: 6.23 µM (active)
EC50 [9]: > 12 µM (inconclusive)
EC50 [10]: < 0.1 µM (active)
IC50 [11]: > 20 µM (inactive)
EC50 [12]: 8.07 µM (active)
IC50 [13]: > 50 µM (not active)
IC50 [14]: 4.88 µM (inactive)
EC50 [15]: 0.942 µM (active)
IC50 [16]: > 20 µM (inactive)
EC50 [17]: 7.32 µM (active)
EC50 [18]: 5.45 µM (active)
IC50 [19]: > 50 µM (not active)
EC50 [20]: > 12 µM (not active)
AC50 [21]: 1.99 µM (active)

COc1cccc(/C=N/NC(=O)c2cc3c(OC)c(OC)ccc3[nH]2)c1OC
EC50 [22]: > 49.7 µM (not active)
EC50 [23]: > 49.7 µM (not active)

Cc1ccc(-c2nc(-c3ccccc3)c(-c3ccccc3)[nH]2)cc1
IC50 [24]: > 17 µM (not active)
